How the values were obtained:
IL-6 [1] = test: IL-6 expression in colon tissue (ELISA), TNBS acute colitis, third experiment; format: in vivo, male mice (C57BL/6); conditions: Table 12; TNBS-treated mice, 10 mg/kg orally, 3 days
Experimental: (§1) Meanwhile, 0.1 ml of normal saline solution was orally administered to the normal group. Since then, from the next day, the sample dissolved in normal saline solution was orally administered in the volume that was decided in advance one time a day for 3 days. At the next day after completing the sample administration, the experimental animals were suffocated to death with carbon dioxide, and the colon from appendix to the region just before the anus was removed from the colon region. At this time, as a medicine sample, the experiments using the butanol-soluble fraction of the Anemarrhena asphodeloides Bunge extract, Mangiferin, and a combined extract were separately performed at a distance of time, respectively, and the effects of the medicine samples on preventing or treating colitis were reasonably analyzed based on the group supplied with normal saline solution instead of a specific medicine in the model animals with acute colitis induced by TNBS for each of the experiments. […] While the supernatant was stored at −80° C., the expression amounts of IL-1 beta, IL-6, and TNF-alpha, which were proinflammatory cytokines, and the expression amount of IL-10, which was anti-inflammatory cytokine, were measured using a 96-well ELISA plate kits (Pierce Biotechology, Inc., Rockford, Ill., USA).

[2] = system: model animal with acute colitis induced by TNBS; test: Acute colitis induced by TNBS in mice, weight change and colon appearance (macroscopic score, colon length), third experiment; format: in vivo, male mice (C57BL/6); conditions: Table 12, TNBS-treated mice, 3 days
Experimental: All the mice were bred under the controlled environmental conditions of 50 ±10% of humidity and 20 to 22° C. of temperature, and the lighting was repeatedly on for 12 hours and off for 12 hours. A feed for a standard experiment (Samyang, Korea) was used as a feed, and water was freely taken. For all the experiments, one group was 6 mice. […] Meanwhile, 0.1 ml of normal saline solution was orally administered to the normal group. Since then, from the next day, the sample dissolved in normal saline solution was orally administered in the volume that was decided in advance one time a day for 3 days. At the next day after completing the sample administration, the experimental animals were suffocated to death with carbon dioxide, and the colon from appendix to the region just before the anus was removed from the colon region. At this time, as a medicine sample, the experiments using the butanol-soluble fraction of the Anemarrhena asphodeloides Bunge extract, Mangiferin, and a combined extract were separately performed at a distance of time, respectively, and the effects of the medicine samples on preventing or treating colitis were reasonably analyzed based on the group supplied with normal saline solution instead of a specific medicine in the model animals with acute colitis induced by TNBS for each of the experiments. The sample administration to the model animals with colitis induced by TNBS was stopped, and at the next day, the weights of the experimental animals were measured, and then, the measured weights were compared with the initial weights to calculate the change amounts of weights. The scores about the removed colons were estimated by observing the appearances and the lengths of the colons according to the following criteria (Hollenbach, and the like, the criteria about the level of colon in 2005) as listed in Table 11. At this time, as a positive control group, the group administered with Mesalazine (Sigma) was used. In addition, some of the content in the colon was collected in order to analyze the rumen microorganisms, and then, was stored in a freezer of −80° C. […]

IL-1 beta [3] = test: IL-1 beta expression in colon tissue (ELISA), TNBS acute colitis, third experiment; format: in vivo, male mice (C57BL/6); conditions: Table 12; TNBS-treated mice, 10 mg/kg orally, 3 days
Experimental: as §1

IL-6 [4] = test: IL-6 expression in colon tissue (ELISA), TNBS colitis, second experiment; format: in vivo, ICR male mice; conditions: Table 9, extract-based samples, TNBS-treated mice, 10 mg/kg orally, 3 days
Experimental: (§2) Among the experimental groups, one group was set as a normal group, and for the experimental animals in other groups, colitis was induced with 2,4,6-trinitrobenzenesulfonic acid (TNBS). In detail, after lightly anesthetizing the experimental animals with ether, 0.1 ml of the solution prepared by mixing […] of 2,4,6-Trinitrobenzene sulfonic acid (NBS) solution with 50% ethanol was injected into the colon through the anus using a syringe having 1 ml volume and oval point, respectively; and then, the syringe was vertically picked up, and then, maintained for 30 seconds to induce the inflammation. Meanwhile, 0.1 ml of normal saline solution was orally administered to the normal group. Since then, from the next day, the sample dissolved in normal saline solution was orally administered in the volume that was decided in advance one time a day for 3 days. […]
(§3) 250 μl of RIPA butter including protease inhibitor cocktail was added to 100 mg of the colon tissue of experimental animal, and then, the colon tissue was homogenized. […] While the supernatant was stored at −80° C., the expression amounts of IL-1 beta, IL-6, and TNF-alpha were measured using a 96-well ELISA plate kits (Pierce Biotechology, Inc., Rockford, Ill., USA).

IL-1 beta [5] = test: IL-1 beta expression in colon tissue (ELISA), TNBS colitis, second experiment; format: in vivo, ICR male mice; conditions: Table 9, extract-based samples, TNBS-treated mice, 10 mg/kg orally, 3 days
Experimental: as §2, §3

IL-1 beta [6] = test: IL-1 beta expression in colon tissue (ELISA), TNBS colitis, first experiment; format: in vivo, ICR male mice; conditions: TNBS-treated mice, 10 mg/kg orally, 3 days
Experimental: Among the experimental groups, one group was set as a normal group, and for the experimental animals in other groups, colitis was induced with 2,4,6-trinitrobenzenesulfonic acid (TNBS). In detail, after lightly anesthetizing the experimental animals with ether, 0.1 ml of the solution prepared by mixing […] of 2,4,6-Trinitrobenzene sulfonic acid (NBS) solution with 50% ethanol was injected into the colon through the anus using a syringe having 1 ml volume and oval point, respectively; and then, the syringe was vertically picked up, and then, maintained for 30 seconds to induce the inflammation. Meanwhile, 0.1 ml of normal saline solution was orally administered to the normal group. Since then, from the next day, the sample dissolved in normal saline solution was orally administered in the volume that was decided in advance one time a day for 3 days. At the next day after completing the sample administration, the experimental animals were suffocated to death with carbon dioxide, the colon from appendix to the region just before the anus was removed from the colon region.
250 μl of RIPA butter including protease inhibitor cocktail was added to 100 mg of the colon tissue of experimental animal, and then, the colon tissue was homogenized. Since then, the homogenized colon tissue was centrifuged under the conditions of 4° C. and 13000 rpm for 15 minutes to obtain supernatant. While the supernatant was stored at −80° C., the expression amounts of IL-1 beta, IL-6, and TNF-alpha were measured using a 96-well ELISA plate kits (Pierce Biotechology, Inc., Rockford, Ill., USA).

Nc1ccc(O)c(C(=O)O)c1 [mesalazine, Mesalazine]
IL-6 (Percentage to group supplied with normal saline solution after treating TNBS) (IL-6 [1]): 26.6%
Colon length (Percentage to group supplied with normal saline solution after treating TNBS) ([2]; 10 mg/kg orally): 155%
Macroscopic score (Percentage to group supplied with normal saline solution after treating TNBS) ([2]; 10 mg/kg orally): 61.1%
Body weight (Percentage to group supplied with normal saline solution after treating TNBS) ([2]; one time dosage amount 10 mg/kg orally): 113.5%
IL-1β (Percentage to group supplied with normal saline solution after treating TNBS) (IL-1 beta [3]): 30.3%
IL-6 conc. (IL-6 [4]): 1.32 ± 0.11 pg/mg
IL-1 beta conc. (IL-1 beta [5]): 16.30 ± 3.38 pg/mg
IL-1 beta conc. (IL-1 beta [6]; Table 4 (group 1)): 19.8 ± 14.4 pg/mg
IL-1 beta conc. (IL-1 beta [6]; Table 5 (group 2)): 31.1 ± 2.9 pg/mg

Source: patent publication US20170368089A1, “COMPOSITION FOR PREVENTING OR TREATING COLITIS” (UNIVERSITY-INDUSTRY COOPERATION GROUP OF KYUNG HEE …, priority 2012, published 2017)
